Test results from patent publication US20240067600A1, “SMALL MOLECULE INHIBITORS OF THE MITOCHONDRIAL PERMEABILITY TRANSITION PORE (mtPTP)” (UNIVERSITY OF KANSAS, priority 2014, published 2024).
Where two headings read alike, the source gives them in different places.

Experiments:
[1] = system: exon 9 col6a1 morphant zebrafish; experiment: Spontaneous coiling of exon 9 col6a1 morphant zebrafish embryos; type: in vivo; details: 5 and 10 μM in fish water from 21 hpf; read at 24 hpf
Description: (§1) Zebrafish and embryo maintenance. Adult zebrafish were maintained in the facility of the University of Padova containing aerated, 28.5° C.-conditioned saline water according to standard protocols. Fish were kept under a 14 h light-10 h dark cycle. For mating, males and females were separated in the late afternoon, and were freed to start courtship the next morning, which ended with egg deposition and fecundation. Eggs were collected, washed with fish water (0.5 mM NaH2PO4, 0.5 mM NaHPO4, 0.2 mg/L methylene blue, 3 mg/L instant ocean) and embryos were maintained at 28.5° C. All protocols and manipulations with zebrafish were performed as described in C. B. Kimmel, W. W. Ballard, S. R. Kimmel, B. Ullmann, T. F. Schilling, Dev. Dyn. […]
(§2) Motor activity. Spontaneous coiling rates were recorded by observing the number of coiling events in 15 s for single embryos at 24 hpf using light microscopy. Touch-evoked escape response was measured at 48 hpf by observing the ability of larvae to escape after touching the body with a little tip. […]
(§3) Statistical analysis. Differences between control and compound treated samples were determined by one-way ANOVA test with Bonferroni correction using GraphPad Prism (version 5.1 for Windows). […] For FIG. 3, the total number of embryos used is n=35 for each condition; *p<0.05, ***p<0.001, as determined by χ^2 test and oneway ANOVA with Bonferroni correction.

[2] = system: exon 9 col6a1 morphant zebrafish; experiment: Touch-evoked escape response of exon 9 col6a1 morphant zebrafish embryos; type: in vivo; details: 5 and 10 μM in fish water from 21 hpf; read at 48 hpf
Description: as §1, §2, §3

[3] = system: exon 9 col6a1 morphant zebrafish; experiment: Muscle birefringence assay in exon 9 col6a1 morphant zebrafish embryos; type: in vivo
Description: as §1, with “C.” for “C. B. Kimmel, W. W. Ballard, S. R. Kimmel, B. Ullmann, T. F. Schilling, Dev. Dyn.”
Birefringence assay. Muscle birefringence was measured at 48 hpf on tricaine-anesthetized embryos by taking advantage of muscle fiber anisotropy. It was measured using two polarizing filters on a Leica M165FC stereomicroscope. Briefly, anesthetized embryos were placed on a glass slide, and muscle light refraction was analyzed by using two polarizing filters. […] Integrated area of birefringence was calculated by using ImageJ software, as disclosed in J. Berger, T. Sztal, P. D. Currie, Biochem. Biophys. […]
Statistical analysis. Differences between control and compound treated samples were determined by one-way ANOVA test with Bonferroni correction using GraphPad Prism (version 5.1 for Windows). […]

mtPTP = experiment: Calcium retention capacity (CRC) assay on isolated mitochondria; type: biochemical, mice; details: for Calcium Retention Capacity (CRC/CRC0 at 12.5 μM): 12.5 μM compound; for Calcium Retention Capacity (CRC/CRC0) at 1.56 μM: 1.56 μM compound
Description: Assay buffer: 250 mM sucrose, 10 mM MOPS-Tris, 0.01 mM EGTA-Tris, 1.0 mM phosphoric acid-Tris, pH 7.4. • Solution 1. 10 mM glutamate and 5 mM malate in Assay buffer. • Solution 2. 1% DMSO in Solution 2. • Solution 3. 0.5 mg/mL mitochondria and 1.0 μM Calcium Green-5N in Assay Buffer. • Solution 4. 0.25 mM CaCl2).
Protocol Summary: • 1. Freshly isolate mitochondria, prepare solutions according to the recipes in the Reagent Section. • 2. Dispense 100 μL of Solution 2 to Columns 1-2 (negative control) of the 96-well black assay plate (Falcon 353376). • 3. Dispense 200 μL of Solution 1 to Row A Columns 3-12. • 4. Next, dispense 100 μL of Solution 2 to Rows B-H Columns 3-12. • 5. Add 4 μL of 5 mM test compounds in DMSO to Row A Columns 3-12, perform 1:2 serial dilutions Row A to H Columns 3-12. • 6. Finally, dispense 100 μL of Solution 3 in all wells. • 7. Experiment starts. Read Calcium Green-5N fluorescence (excitation 485 nm, emission 538 nm) and perform a train of 4 μL Solution 4 additions with Fluoroskan Ascent FL, Thermo Scientific.

[4] = system: Mitochondrial Permeability Transition Pore; experiment: Mitochondrial swelling absorbance assay; type: biochemical, mice
IMM potential = experiment: Rhodamine 123 (Rh123) uptake counterscreen; type: biochemical, mice;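 also: isolated mitochondria respiring on glutamate plus malate in sucrose MOPS-Tris buffer at pH 7.4, Rh123 added with the organelles, compounds tested across a twofold dilution series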
Description: Assay buffer: 250 mM sucrose, 10 mM MOPS-Tris, 0.01 mM EGTA-Tris, 1.0 mM phosphoric acid-Tris, pH 7.4 • Solution 1. 5.0 mM glutamate and 2.5 mM malate in Assay Buffer. • Solution 2. 1% DMSO in Solution 1. • Solution 3. 0.8 μM FCCP (the stock 40 μM in DMSO) in Solution 1. • Solution 4. 0.5 mg/mL mitochondria and 0.8 μM Rh123 in Assay Buffer.
Protocol Summary: • 1. Freshly isolate mitochondria, prepare solutions according to the recipes in the Reagent Section. • 2. Dispense 100 μL of Solution 3 to Columns 1-2 and Solution 2 Columns 11-12 (positive and negative controls, respectively) of the 96-well black assay plate (Falcon 353376). • 3. Dispense 200 μL of Solution 1 to Row A Columns 3-10. • 4. Next, dispense 100 μL of Solution 2 to Rows B-H Columns 3-10. • 5. Add 4 μL of 10 mM test compounds in DMSO to Row A Columns 3-10, perform 1:2 serial dilutions Row A to H Columns 3-10. • 6. Finally, dispense 100 μL of Solution 4 in all wells. The reaction starts. • 7. Keep the plate at room temperature for 5 minutes and then read fluorescence (excitation 485 nm, emission 538 nm) on Fluoroskan Ascent FL, Thermo Scientific.
Concentration-Response Counterscreen Assay to Identify Compounds that Prevent Mitochondrial Swelling Via Interference with the IMM Potential (SAR Assay AID No. 743361)
Assay buffer: 250 mM sucrose, 10 mM MOPS-Tris, 0.01 mM EGTA-Tris, 1.0 mM phosphoric acid-Tris, pH 7.4 • Solution 1. 5.0 glutamate and 2.5 mM malate in Assay Buffer. • Solution 2. 1% DMSO in Solution 1. • Solution 3. 0.8 μM FCCP (the stock 40 μM in DMSO) in Solution 1. • Solution 4. 0.5 mg/mL mitochondria and 0.8 μM Rh123 in Assay Buffer.

[5] = Table 1, read-out: Rh123 uptake (EC50)
[6] = Table 2, average of >3 experiments ± SEM

| Structure (SMILES) | Calcium Retention Capacity (CRC/CRC0 at 12.5 μM) (mtPTP; Table 1, average ± SEM) | EC50 ([4]; Table 1, average ± SEM) | EC50 (IMM potential; [5]) | Calcium Retention Capacity (CRC/CRC0) at 1.56 μM (mtPTP; Table 1, average ± SEM) | other results |
| --- | --- | --- | --- | --- | --- |
| Cc1c(Cl)cccc1NC(=O)c1cc(-c2ccc(F)c(O)c2)on1 [compound 60, N-(3-Chloro-2-methylphenyl)-5-(4-fluoro-3-hydroxyphenyl)isoxazole-3-carboxamide] | – | – | – | – | motor function: spontaneous coiling events (FIG. 1) [1]: dramatic improvement in motor function; motor function: touch-evoked response (FIG. 2) [2]: dramatic improvement in motor function; muscle defects by muscle birefringence (FIG. 3) ([3]; 5 and 10 μM in fish water from 21 hpf, read at 48 hpf): largely ameliorated; total birefringence scores ([3]; 48 hpf, ANOVA, p<0.05): significant recovery of muscle defects |
| O=C(Nc1ccc(CN2CCCCC2)cc1)c1cccc(Cl)c1 | 1.16 ± 0.02 | 16000 ± 1580 nM | > 100 µM | – | – |
| Cc1c(Cl)cccc1NC(=O)c1cc(-c2ccc(Cl)c(O)c2)on1 | – | 0.18 ± 0.042 nM | > 100 µM | 8.22 ± 0.58 (at 1.56 μM) | – |
| CN1CCN(c2ccc(NS(=O)(=O)c3cc(Cl)cc(Cl)c3)cc2)CC1 | 1.11 ± 0.03 | 21700 ± 1080 nM | > 100 µM | – | – |
| O=S(=O)(Nc1ccc(CCN2CCCCC2)cc1)c1cc(Cl)cc(Cl)c1 | 1.17 ± 0.04 | 25600 ± 1800 nM | > 100 µM | – | – |
| COc1ccc(Cl)cc1C(=O)Nc1ccc(CCN2CCCCC2)cc1 | 1.51 ± 0.01 | 2680 ± 166 nM | > 100 µM | – | – |
| Cc1ncc(Cl)cc1NC(=O)c1cc(-c2ccc(F)c(O)c2)on1 | 10.69 ± 1.00 | 16 ± 1.9 nM | > 100 µM | 9.12 ± 0.88 | – |
| Cc1cnc(Cl)cc1NC(=O)c1cc(-c2ccc(F)c(O)c2)on1 | 3.48 ± 0.51 | 2190 ± 150 nM | > 100 µM | – | – |
| O=C(Nc1cc(Cl)cc(Cl)c1)c1cc(-c2cccc(O)c2)on1 | 12.08 ± 1.92 | 190 ± 17 nM | > 100 µM | 5.72 ± 0.25 | – |
| Cc1ccc(Cl)cc1NC(=O)c1cc(-c2ccc(F)c(O)c2)on1 | 19.28 ± 1.59 | 0.134 ± 0.016 nM | > 100 µM | 15.21 ± 1.26 | – |
| COc1ccc(-c2cc(C(=O)Nc3cccc(Cl)c3C)no2)cc1O | 13.44 ± 0.93 | 0.0283 ± 0.0048 nM | > 100 µM | 9.59 ± 0.85 | – |
| O=C(Nc1ccc(CN2CCCCC2)cc1)c1ccc(Cl)c(OCc2ccccc2F)c1 [Entry 11] | – | – | – | – | Calcium Retention Capacity (CRC/CRC0 at 12.5 μM) (mtPTP; [6]): 2.59 ± 0.54; EC50 [4, 6]: 1390 ± 170 nM; EC50 (IMM potential; Table 2, average of >3 experiments ± SEM, read-out: Rh123 Assay EC50): > 100 µM |
| Cc1ccc(Cl)cc1NC(=O)c1cc(-c2ccc(F)c(O)c2)[nH]n1 | – | 1.4 ± 0.2 nM | 30.4 ± 5.5 µM | 10.92 ± 0.74 (at 1.56 μM) | – |
| COc1ccc(Cl)cc1C(=O)Nc1ccc(CN2CCN(C(=O)OC(C)(C)C)CC2)cc1 | 1.33 ± 0.06 | 9240 ± 860 nM | > 100 µM | – | – |
| COc1ccc(Cl)cc1C(=O)Nc1ccc(CCN2CCN(C(=O)OC(C)(C)C)CC2)cc1 [drawing 148] | 1.37 ± 0.02 | 7610 ± 839 nM | > 100 µM | – | – |
| COc1ccc(/C=C/C(=O)Nc2cccc(Cl)c2)cc1O [drawing 143] | 11.05 ± 1.35 | 125 ± 7.1 nM | > 100 µM | – | – |
| Cc1c(Cl)cccc1NC(=O)c1cc(-c2ccc(F)c(O)c2)on1 [drawing 141] | – | 0.89 ± 0.141 nM | > 100 µM | 12.14 ± 0.55 (at 1.56 μM) | – |
| O=C(Nc1cccc(Cl)c1Cl)c1cc(-c2ccc(F)c(O)c2)on1 [drawing 136] | 9.37 ± 0.65 | 55.4 ± 4.1 nM | > 100 µM | – | – |
| COc1ccc(-c2cc(C(=O)Nc3cc(Cl)ccc3C)n[nH]2)cc1O | – | 2.4 ± 0.4 nM | > 100 µM | 7.51 ± 0.47 (at 1.56 μM) | – |
| Cc1cnc(Cl)cc1NC(=O)c1cc(-c2cccc(O)c2)on1 | 5.51 ± 0.99 | – | > 100 µM | – | EC50 ([4]; Table 1, unit inferred, average ± SEM): 100 ± 9.6 nM |
| O=C(Nc1cc(Cl)ccc1Cl)c1cc(-c2cccc(O)c2)on1 | 4.67 ± 0.31 | 1520 ± 51.2 nM | 38.5 ± 3.98 µM | – | – |
| O=C(Nc1cccc(Cl)c1)c1cc(-c2cccc(O)c2)on1 [drawing 182] | – | 78.8 ± 5.8 nM | > 100 µM | 4.13 ± 0.17 (at 1.56 μM) | – |
| O=C(Nc1cc(Cl)cc(Cl)c1)c1cc(-c2ccc(F)c(O)c2)on1 [drawing 191] | 11.22 ± 1.22 | 76 ± 9.2 nM | > 100 µM | – | – |
